# Test results taken from BindingDB's records for doi:10.1021/jm040209d (University of Illinois At Urbana-Champaign, 2005).
# Target: Farnesyl diphosphate synthase (Leishmania major)
# Assay: Binding affinity towards Farnesyl diphosphate synthase from leishmania major
row,Ki,Compound
1,38 nM,Cc1ccc[n+](CC(O)(P(=O)([O-])O)P(=O)(O)O)c1 (configuration not stated) [hydrogen 1-hydroxy-2-(3-methylpyridinium-1-yl)-1-phosphonoethylphosphonate]
2,50 nM,O=P([O-])(O)C(O)(C[n+]1cccc(F)c1)P(=O)(O)O (configuration not stated) [hydrogen 2-(3-fluoropyridinium-1-yl)-1-hydroxy-1-phosphonoethylphosphonate]

# More lines, now with the values behind:
row,Compound,Ki
1,COc1ccc[n+](CC(O)(P(=O)([O-])O)P(=O)(O)O)c1 (configuration not stated) [hydrogen 1-hydroxy-2-(3-methoxypyridinium-1-yl)-1-phosphonoethylphosphonate],30 nM
2,Cc1cccc(Cc2ccc[n+](CC(O)(P(=O)([O-])O)P(=O)(O)O)c2)c1 (configuration not stated) [hydrogen 1-hydroxy-2-[3-(3-methylbenzyl)pyridinium-1-yl]-1-phosphonoethylphosphonate],70 nM
3,O=P([O-])(O)C(O)(C[n+]1cccc(Cc2ccccc2)c1)P(=O)(O)O (configuration not stated) [hydrogen 2-(3-benzylpyridinium-1-yl)-1-hydroxy-1-phosphonoethylphosphonate],160 nM
4,CCCCc1ccc[n+](CC(O)(P(=O)([O-])O)P(=O)(O)O)c1 (configuration not stated) [hydrogen 2-(3-butylpyridinium-1-yl)-1-hydroxy-1-phosphonoethylphosphonate],20 nM
5,O=P([O-])(O)C(O)(C[n+]1cccc(-c2ccc(O)cc2)c1)P(=O)(O)O (configuration not stated) [sodium hydrogen 1-hydroxy-2-[3-(4-oxidophenyl)pyridinium-1-yl]-1-phosphonoethylphosphonate],75 nM
